Experimental data from patent US20040014689A1, “Endoparaciticidal and ectoparasiticidal agents” (priority 1996, published 2004).

Key:
[1] = system: Heterakis spumosa; assay: Example D: in vivo nematode test, Heterakis spumosa in mice; conditions: oral
Method: Heterakis spumosa in Mice
Mice were experimentally infected with nematodes of the species Heterakis spumosa. Specifically, the mice were administered Heterakis spumosa orally as 90 embryonate eggs.
After the prepatency period had expired, the suspended active compounds of Example 2 were administered orally on day 46 after the infection.
(§1) Determination of the Activity:
The mice are selected on day 54 after the infection. The adult parasites are counted in the colon and caecum using a microscope. The success of treatment in the dose group is compared to the untreated control group.

[2] = system: Nematospiroides dubius; assay: Use Example C: in vivo nematode test, Nematospiroides dubius in mice; conditions: oral
Method: Nematospiroides dubius in Mice
Mice were experimentally infected with nematodes of the species Nematospiroides dubius. Specifically, the mice were administered Nematospiroides dubius orally as 60 filariform larvae.
After the prepatency period had expired, the suspended active compounds of Example 2 were administered orally on day 12 after the infection.
as §1
The mice are selected on day 20 after the infection. The adult parasites in the Duodenum are counted by means of a compressorium. The success of treatment in the dose group is compared to the untreated control group.

[3] = ivermectin B1a/B1b 0.1 mg/kg alone

Molecule | Reduction rate [%] [1, 3] | Reduction rate [%] [2, 3] | Reduction rate [%] ([1]; imidacloprid 5.0 mg/kg alone) | Reduction rate [%] ([1]; imidacloprid 10.0 mg/kg alone) | Reduction rate [%] ([1]; imidacloprid 25.0 mg/kg alone) | Reduction rate [%] ([1]; imidacloprid 50.0 mg/kg alone) | Reduction rate [%] ([2]; imidacloprid 25.0 mg/kg alone) | Reduction rate [%] ([2]; imidacloprid 50.0 mg/kg alone)
22,23-Dihydroavermectin B1a/B1b [Ivermectin B1a/B1b] | <50% | 0% | – | – | – | – | – | –
O=[N+]([O-])NC1=NCCN1Cc1ccc(Cl)nc1 [Imidacloprid, 1-[(6-chloro-3-pyridinyl)methyl]-N-nitro-2-imidazolidinium] | – | – | 0% | 0% | 0% | 0% | 0% | 0%
